“And” between values parts separate entries of the source, which are not always exact repeats. Equal values may be shown once. Inconclusive results and toxic doses are left out.
System: BDF1 mice, P388 leukemia ip, median survival T/C
Experiment: NCI In Vivo Anticancer Drug Screen. Data for tumor model P388 Leukemia (intraperitoneal) in B6D2F1 (BDF1) mice
Settings: endpoint: median survival time, higher = longer survival
Outline: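 Antitumour effect was judged in vivo: survival in drug-treated mice, normalised to that of vehicle-dosed controls, gives the reported T/C.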

[1] = dose: 100.0 mg/kg/injection, schedule: Q04DX003 (ip), vehicle: Klucel (hydroxypropylcellulose) (HPC)
[2] = dose: 200.0 mg/kg/injection, schedule: Q04DX003 (ip), vehicle: Klucel (hydroxypropylcellulose) (HPC)
[3] = dose: 6.25 mg/kg/injection, schedule: Q01DX009 (ip), vehicle: saline
[4] = dose: 12.5 mg/kg/injection, schedule: Q01DX009 (ip), vehicle: saline
[5] = dose: 100.0 mg/kg/injection, schedule: Q01DX001 (ip), vehicle: Klucel (hydroxypropylcellulose) (HPC)
[6] = dose: 200.0 mg/kg/injection, schedule: Q01DX001 (ip), vehicle: Klucel (hydroxypropylcellulose) (HPC)
[7] = dose: 25.0 mg/kg/injection, schedule: Q04DX003 (ip), vehicle: saline

SMILES: C=C(Cl)C(=O)OCC
- T/C (dose: 5.0 mg/kg/injection, schedule: Q04DX003 (ip), vehicle: saline): 100 % of control
- T/C (dose: 10.0 mg/kg/injection, schedule: Q04DX003 (ip), vehicle: saline): 109 % of control
- T/C (dose: 20.0 mg/kg/injection, schedule: Q04DX003 (ip), vehicle: saline): 100 % of control

SMILES: O=[N+]([O-])c1cccc(C=Nc2cccc(C(F)(F)F)c2)c1
- T/C (dose: 3.0 mg/kg/injection, schedule: Q01DX009 (ip), vehicle: Klucel (hydroxypropylcellulose) (HPC)): 95 % of control
- T/C (dose: 6.0 mg/kg/injection, schedule: Q01DX009 (ip), vehicle: Klucel (hydroxypropylcellulose) (HPC)): 95 % of control
- T/C (dose: 12.0 mg/kg/injection, schedule: Q01DX009 (ip), vehicle: Klucel (hydroxypropylcellulose) (HPC)): 100 % of control
- T/C [1]: 104 % of control
- T/C [2]: 95 % of control
- T/C (dose: 400.0 mg/kg/injection, schedule: Q04DX003 (ip), vehicle: Klucel (hydroxypropylcellulose) (HPC)): 95 % of control

SMILES: NC(=O)CCC(N)C(=O)O.[Cl-].[Cl-].[Cl-].[Cl-].[Pt+2] (stereo not given)
- T/C (dose: 1.56 mg/kg/injection, schedule: Q01DX009 (ip), vehicle: saline): 106 % of control
- T/C (dose: 3.13 mg/kg/injection, schedule: Q01DX009 (ip), vehicle: saline): 107 % of control
- T/C [3]: 124 % of control
- T/C [4]: 153 % of control
- T/C (dose: 25.0 mg/kg/injection, schedule: Q01DX009 (ip), vehicle: saline): 172 % of control

SMILES: CC1(C)OC1CC1=CC(=O)C=CC1=O (stereo not given)
- T/C (dose: 25.0 mg/kg/injection, schedule: Q01DX009 (ip), vehicle: saline with Tween-80): 108 % of control
- T/C (dose: 50.0 mg/kg/injection, schedule: Q01DX009 (ip), vehicle: saline with Tween-80): 103 % of control
- T/C (dose: 100.0 mg/kg/injection, schedule: Q01DX009 (ip), vehicle: saline with Tween-80): 100 % of control
- T/C (dose: 200.0 mg/kg/injection, schedule: Q01DX009 (ip), vehicle: saline with Tween-80): 117 % of control

SMILES: O=C1CSCC(=O)O1
- T/C (dose: 50.0 mg/kg/injection, schedule: Q01DX009 (ip), vehicle: Klucel (hydroxypropylcellulose) (HPC)): 105 % of control
- T/C (dose: 50.0 mg/kg/injection, schedule: Q04DX003 (ip), vehicle: Klucel (hydroxypropylcellulose) (HPC)): 95 % of control
- T/C [1]: 95 % of control
- T/C [2]: 109 % of control

SMILES: Nc1nc(SCC(=O)c2ccccc2)c2[nH]cnc2n1
- T/C (dose: 100.0 mg/kg/injection, schedule: Q01DX009 (ip), vehicle: saline sonified): 115 % of control
- T/C (dose: 100.0 mg/kg/injection, schedule: Q04DX003 (ip), vehicle: saline with Tween-80): 109 % of control
- T/C (dose: 200.0 mg/kg/injection, schedule: Q01DX009 (ip), vehicle: saline sonified): 110 % of control
- T/C (dose: 200.0 mg/kg/injection, schedule: Q04DX003 (ip), vehicle: saline with Tween-80): 113 % of control
- T/C (dose: 400.0 mg/kg/injection, schedule: Q01DX009 (ip), vehicle: saline sonified): 110 % of control
- T/C (dose: 400.0 mg/kg/injection, schedule: Q04DX003 (ip), vehicle: saline with Tween-80): 118 % of control

SMILES: CCCCCCCCCCCCCCCCNC(=S)Nc1ccc(C(=O)O)cc1
- T/C (dose: 50.0 mg/kg/injection, schedule: Q01DX001 (ip), vehicle: Klucel (hydroxypropylcellulose) (HPC)): 113 % of control
- T/C [5]: 109 % of control
- T/C [6]: 100 % of control

SMILES: ClCCCN1CCCCC1CCl (stereo not given)
- T/C (dose: 3.12 mg/kg/injection, schedule: Q04DX003 (ip), vehicle: saline): 102 % of control
- T/C [3]: 242 % of control
- T/C [4]: 254 % of control and 96 % of control
- T/C (dose: 12.5 mg/kg/injection, schedule: Q04DX003 (ip), vehicle: saline): 151 % of control
- T/C [7]: 236 % of control and 182 % of control
- T/C (dose: 40.0 mg/kg/injection, schedule: Q04DX003 (ip), vehicle: saline): 90 % of control

SMILES: C=C(C)C(O)C(O)c1cc2ccc(=O)oc2cc1OC (stereo not given)
- T/C (dose: 8.75 mg/kg/injection, schedule: Q01DX009 (ip), vehicle: carboxymethylcellulose (CMC)): 96 % of control
- T/C (dose: 17.5 mg/kg/injection, schedule: Q01DX009 (ip), vehicle: carboxymethylcellulose (CMC)): 88 % of control

SMILES: COC(=O)c1ccc(OCCOc2ccc(C(C)(C)CC(C)(C)C)cc2)c(N)c1
- T/C [5]: 95 % of control
- T/C [6]: 104 % of control
- T/C (dose: 400.0 mg/kg/injection, schedule: Q01DX001 (ip), vehicle: Klucel (hydroxypropylcellulose) (HPC)): 100 % of control

SMILES: c1ccc(-c2cscc2-c2ccccc2)cc1
- T/C [7]: 97 % of control
- T/C (dose: 50.0 mg/kg/injection, schedule: Q01DX009 (ip), vehicle: saline): 93 % of control
- T/C (dose: 50.0 mg/kg/injection, schedule: Q04DX003 (ip), vehicle: saline): 108 % of control
- T/C (dose: 100.0 mg/kg/injection, schedule: Q01DX009 (ip), vehicle: saline): 93 % of control
- T/C (dose: 100.0 mg/kg/injection, schedule: Q04DX003 (ip), vehicle: saline): 100 % of control
- T/C (dose: 200.0 mg/kg/injection, schedule: Q01DX009 (ip), vehicle: saline): 101 % of control
- T/C (dose: 400.0 mg/kg/injection, schedule: Q01DX009 (ip), vehicle: saline): 93 % of control
- T/C (dose: 400.0 mg/kg/injection, schedule: Q04DX003 (ip), vehicle: saline): 100 % of control

Source: PubChem BioAssay AID328 (DTP/NCI, 2004)
